Laboratory results as given in patent publication US9989535B2, “Methods and reagents for analyzing protein-protein interfaces” (Warp Drive Bio, Inc., priority 2015, dated 2018).
Values belong to the compound of their own block, whether it stands above or below them.

What was measured:
Type in all cases: binding
[1] = biological target: T1, KRASGTP/S39C lite (Homo sapiens, UniProt P01116, C118S/C51S/C80L/G12V/S39C); test: Formation of KRASGTP/S39C lite/C2-FK506 conjugates, SDS-PAGE
T1 construct: residues 1-169 containing G12V/S39C/C51S/C80L/C118S; made in house
Experimental: (§1) Experimental Protocol: A 1:2 molar ratio of target protein and compound are mixed together in 12.5 mM HEPES pH 7.4, 75 mM NaCl buffer containing 2% DMSO. The reaction is incubated at 37° C. for 30 min, followed by overnight incubation at room temperature. Cross-linking efficiency is assessed by SDS-PAGE gel. Conjugates migrate slower than non-cross-linked target protein. For thiol reactive compounds, the Cys specific attachment of the compound to the target protein can be further confirmed by SDS-PAGE after the addition of 100 mM DTT to the reaction mixture, which reduces the conjugate back into its components.
Experimental Protocol: A 1:2 molar ratio of KRASGTP/S39C lite and C2-FK506 are mixed together in 12.5 mM HEPES pH 7.4, 75 mM NaCl buffer containing 2% DMSO. The reaction is incubated at 37° C. for 30 min, followed by overnight incubation at room temperature. Cross-linking efficiency is assessed by SDS-PAGE gel. Attachment of C2-FK506 to Cysteine 39 on KRASGTP/S39C lite is also assessed by incubation of the reaction mixture with 100 mM DTT.

[2] = biological target: T2, KRASGTP/S39C lite/FKBP12 (Homo sapiens, UniProt P01116+P62942, C118S/C51S/C80L/G12V/S39C); test: Ternary complex formation by SEC and SDS-PAGE; conditions: SEC profile and SDS-PAGE of elution peaks
T2 construct: residues 1-169 containing G12V/S39C/C51S/C80L/C118S; made in house
Experimental: (§2) A 1:2:2 molar ratio of compound, presenter protein, and target protein are mixed together in 12.5 mM HEPES pH 7.4, 75 mM NaCl buffer containing 2% DMSO. The reaction is incubated at 37° C. for 30 min, followed by overnight incubation at room temperature. Pure complex is isolated by Size Exclusion Chromatography (SEC) purification. The reaction mixture is directly injected on a Superdex 75 column (CV 120 mL) pre-equilibrated with buffer containing 12.5 mM HEPES pH 7.4, 75 mM NaCl. Complex elutes at a higher molecular weight than unreacted target protein and presenter protein. To confirm presence of complex in the elution peak, samples are assessed by SDS-PAGE.
(§3) The reaction is incubated at 37° C. for 30 min, followed by overnight incubation at room temperature. Pure complex is isolated by Size Exclusion Chromatography (SEC) purification. The reaction mixture is directly injected on a Superdex 75 column (CV 120 mL) pre-equilibrated with buffer containing 12.5 mM HEPES pH 7.4, 75 mM NaCl. Complex elutes at around 69 mL post injection and unreacted KRASGTP/S39C lite and FKBP12 elutes at around 75 mL and 87 mL post injection respectively. To confirm the presence of KRASGTP/S39C lite and FKBP12 in the elution peak, samples are also assessed by SDS-PAGE.

[3] = biological target: T3, KRASGTP/G12C (Homo sapiens, UniProt P01116+P62942, G12C); test: Disulfide cross-linking efficiency by mass spectrometry, with or without FKBP12; conditions: 2 μM KRAS, 10 μM ligand, 4 hours RT, MS
T3 construct: KRASGTP/G12C (in-house, residues 1-169); made in house
Experimental: Experimental protocol: In order to follow the kinetics of disulfide crosslinking reactions, Agilent 6230 TOF-LC/MS and Agilent 1260 HPLC instruments employing a AdvanceBio RP-mAb C4 column (2.1×100 mm, 3.5 μm) and equipped with an auto-sampler were used. HPLC grade acetonitrile and water (each containing 1.0 mM ammonium formate and 1% formic acid by volume) were used as mobile phase with the following ramp: 0.6 ml/min flow rate, water:acetonitrile=95:5 from 0.0 to 13.0 min ramping to water:acetonitrile=5:95 from 13.0 to 17.0 min. Total time=17.0 min.
All crosslinking reactions were performed in 1.5 mL amber colored glass vials equipped with 0.5 mL glass inserts. A water-soluble peptide (SEQ ID NO: 1: […]) was employed as an internal standard. Although the actual sequence of the internal standard is inconsequential, choice of amino acid residues were critical to avoid interference in the crosslinking assays. […] All reactions and standard solutions were prepared in HEPES (pH 7.4, 1.0 mM MgCl2) buffer.
Prior to every reaction, a standard curve was obtained for the individual components using a series of standard solutions (an example of standard curve analysis for FKBP12 is shown in Table 3 below). Using the data from standard curve, μmol of protein samples were plotted against the ratio of areas (sample:std) and a linear fit (y=mx+c) was employed to obtain the slope and intercept. The value of slope and intercept involved in these standard curves were accounted for during evaluation of the substrate and product concentration before and during the course of the reaction. For every substrate/product, an initial injection was followed up by a blank injection to verify presence of any residual protein/reagents. Based on this analysis the sequence of auto-sampler can be adjusted to included appropriate number of blank injections for removal of residual components, if any. The MS spectra were analyzed using Agilent MassHunter v B.07.0 software.
In a representative experiment to assess the presenter dependency of ligand cross-linking on the target protein, KRASGTP/G12C and either C3- or C4-SLF ligand were incubated in the presence or absence of FKBP12 at concentrations of 2 μM KRAS, 10 μM FKBP12, 10 μM C3- or C4-SLF for 4 hours at room temperature in 12.5 mM HEPES pH 7.4, 75 mM NaCl, 1 mM MgCl2, 3% DMSO. Analysis of the amount of KRAS undergoing disulfide cross-linking with the ligand using the method above.

[4] = biological target: T3, KRASGTP/G12C; test: Cross-linking gel shift assay (12% SDS-PAGE), with or without FKBP12; conditions: 60 μM KRAS, 180 μM FKBP12, 180 μM ligand, quenched by MMTS
Experimental: In parallel to mass spectrometry analysis, cross-linking reactions with C3- or C4-SLF were subjected to gel shift assay using 12% SDS-PAGE in the presence or absence of FKBP12 at the same experimental condition described above except that cross-linking reactions were set up at higher concentrations (60 μM KRAS, 180 μM FKBP12, and 180 μM C3- or C4-SLF) and they were quenched by MMTS to terminate the reaction.

[5] = biological target: T4, KRASGDP/S39C lite/CypAC52S (Homo sapiens, UniProt P01116+P62937, C118S/C51S/C52S/C80L/G12V/S39C); test: Ternary complex formation by SEC and SDS-PAGE; conditions: SEC profile and SDS-PAGE of elution peaks
T4 construct: residues 1-169 containing G12V/S39C/C51S/C80L/C118S; made in house
Experimental: as §2
as §3, with “KRASGDP/S39C” for “KRASGTP/S39C”, “CypAC52S” for “FKBP12”, “80” for “87”

[6] = biological target: T5, CypAC52S (Homo sapiens, UniProt P62937, C52S); test: Presenter cross-linking with SFAX9DS, SDS-PAGE
T5 construct: made in house
T5 sequence (P62937 whole entry C52S): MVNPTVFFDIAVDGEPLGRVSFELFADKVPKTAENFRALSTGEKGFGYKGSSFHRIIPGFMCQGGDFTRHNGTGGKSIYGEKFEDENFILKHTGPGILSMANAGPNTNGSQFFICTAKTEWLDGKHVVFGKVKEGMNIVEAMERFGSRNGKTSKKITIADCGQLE
Experimental: (§4) Experimental Protocol: A 1:2 molar ratio of KRASGTP/G12C lite and SFAX9DS are mixed together in 12.5 mM HEPES pH 7.4, 75 mM NaCl buffer containing 2% DMSO. The reaction is incubated at 37° C. for 30 min, followed by overnight incubation at room temperature. Cross-linking efficiency is assessed by SDS-PAGE gel. Wild-type CypA also cross-linked with the compound. Cysteine 52 as a reactive Cysteine on CypA and was mutated to Serine to abrogate presenter cross-linking.

[7] = biological target: T6, KRASGTP/G12C lite (Homo sapiens, UniProt P01116, C118S/C51S/C80L/G12C); test: Formation of KRASGTP/G12C lite/SFAX9DS conjugates, SDS-PAGE; conditions: 1:2 protein:compound
T6 construct: residues 1-169 containing G12C/C51S/C80L/C118S; made in house
Experimental: as §1, §4

Cross-linking efficiency with KRASGTP/S39C lite ([1]; 1:2 protein:compound, 37° C. 30 min then overnight RT): cross-links efficiently
Site specificity of attachment ([1]; reaction mixture + 100 mM DTT): specific for Cysteine 39
Compound: CO[C@H]1C[C@@H](C)C/C(C)=C/[C@@H](CCCC(=O)NCCSSc2ccccn2)C(=O)C[C@H](O)[C@@H](C)[C@@H](/C(C)=C/[C@@H]2CC[C@@H](O)[C@H](OC)C2)OC(=O)[C@@H]2CCCCN2C(=O)C(=O)[C@]2(O)O[C@H]1[C@@H](OC)C[C@H]2C [Compound C2-FK506]

Compound: CCC(C)(C)C(=O)C(=O)N1CCCC[C@H]1C(=O)OCCCC(=O)NCCSSc1ccccn1 [Compound C2-Holt]
Formation of KRASGTP/S39C lite/C2-Holt/FKBP12 complex [2]: confirm the formation

Compound: CCC(C)(C)C(=O)C(=O)N1CCCC[C@H]1C(=O)O[C@H](CCc1ccc(OC)c(OC)c1)c1cccc(NC(=O)CCCSSc2ccccn2)c1 [Compound C4-SLF, (R)-3-(3,4-dimethoxyphenyl)-1-(3-(4-(pyridin-2-yldisulfanyl)butanamido)phenyl)propyl (S)-1-(3,3-dimethyl-2-oxopentanoyl)piperidine-2-carboxylate]
% × link to KRAS ([3]; FKBP12 absent (−)): 7.0%
% × link to KRAS ([3]; FKBP12 present (+) 10 μM): 69.8%
Ligand cross-linking efficiency in the presence of FKBP12, gel shift [4]: boosted significantly

Formation of KRASGDP/S39C lite/SFAC4DS/CypAC52S complex [5]: confirm the formation
Compound: COC(=O)[C@@H]1CCCN(C(=O)[C@H](Cc2cccc(O)c2)NC(=O)[C@@H](NC(=O)CCCSSc2ccccn2)C(C)C)N1 [SFAC4DS, methyl (S)-1-((S)-3-(3-hydroxyphenyl)-2-((S)-3-methyl-2-(4-(pyridin-2-yldisulfanyl)butanamido)butanamido)propanoyl)hexahydropyridazine-3-carboxylate]

Compound: COC(=O)[C@@H]1CCCN(C(=O)[C@H](Cc2cccc(O)c2)NC(=O)[C@@H](NC(=O)CCOCCOCCSSc2ccccn2)C(C)C)N1 [SFAX9DS]
Cross-linking of presenter CypAC52S to compound [6]: does not cross-link
Cross-linking efficiency with KRASGTP/G12C lite [7]: cross-links efficiently
